Results on 27 compounds are retold here after patent US8816076B2, “Aryl urea derivatives as N-formyl peptide receptor like-1 (FPRL-1) receptor modulators” (Allergan, Inc., priority 2011, dated 2014).

The experiment addresses T1, FPRL-1 (Homo sapiens, UniProt P25090).
T1 construct: expressed in transfected cells
T1 sequence (P25090 1-351): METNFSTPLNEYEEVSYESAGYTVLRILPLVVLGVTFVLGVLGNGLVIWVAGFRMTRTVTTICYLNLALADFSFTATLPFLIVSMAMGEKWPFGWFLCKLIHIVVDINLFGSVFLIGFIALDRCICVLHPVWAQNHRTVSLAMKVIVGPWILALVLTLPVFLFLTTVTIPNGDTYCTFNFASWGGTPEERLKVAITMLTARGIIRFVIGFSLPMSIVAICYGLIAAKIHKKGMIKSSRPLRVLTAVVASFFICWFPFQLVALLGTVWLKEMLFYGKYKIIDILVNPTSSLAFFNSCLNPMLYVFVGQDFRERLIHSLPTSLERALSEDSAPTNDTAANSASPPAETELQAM
Description: Compound-induced calcium activity on FLIPR Tetra in CHO-Ga16 cells stably expressing FPRL1. The experiment is classed as cell-based. Conditions: for EC50: compounds tested at 0.61 to 10,000 nM; for FPRL-1 Ga16-CHO (Rel. eff.): relative efficacy. The procedure:
CHO-Ga16 cells stably expressing FPRL1 were cultured in (F12, 10% FBS, 1% PSA, 400 μg/ml geneticin and 50 μg/ml hygromycin) and HEK-Gqi5 cells stable expressing FPR1 were cultured in (DMEM high glucose, 10% FBS, 1% PSA, 400 μg/ml geneticin and 50 μg/ml hygromycin). In general, the day before the experiment, 18,000 cells/well were placed in a 384-well clear bottom poly-d-lysine coated plate. The following day the screening compound-induced calcium activity was assayed on the FLIPR^Tetra. The drug plates were prepared in 384-well microplates using the EP3 and the MultiPROBE robotic liquid handling systems. Compounds were tested at concentrations ranging from 0.61 to 10,000 nM. Results are expressed as EC50 (nM) and efficacy values.

As usually defined, the EC50 is the midpoint of the concentration-response curve.

Values joined by “and” are separate entries in the source; they are usually repeats but may differ in a detail not shown here. Equal values may be shown once.

With `CCC(CC)(NC(=O)Nc1ccc(Br)cc1)C(=O)O` [Compound 25, 2-({[(4-Bromophenyl)amino]carbonyl}amino)-2-ethylbutanoic acid], the EC50 is 24 nM and the “FPRL-1 Ga16-CHO (Rel. eff.)” value was “(1.03)”. Regarding `O=C(Nc1ccc(Cl)cc1Cl)N[C@@H](Cc1ccccc1)C(=O)O` [Compound 5, (2S)-2-({[(2,4-Dichlorophenyl)amino]carbonyl}amino)-3-phenylpropanoic acid], the 50% effective concentration (EC50) came to 1150 nM and the “FPRL-1 Ga16-CHO (Rel. eff.)” value was “(1.0)”. As for `O=C(Nc1ccc(C(F)(F)F)cc1)NC(Cc1ccccc1)C(=O)O` (stereo not shown) [Compound 22, 3-Phenyl-2-({[4-(trifluoromethyl)phenyl]carbamoyl}amino)propanoic acid], the EC50 stood at 91 nM and the “FPRL-1 Ga16-CHO (Rel. eff.)” value was “(1.05)”. In the same order, the values of `CSCC[C@H](NC(=O)Nc1ccc(Br)cc1)C(=O)O` [Compound 14, (2S)-2-({[(4-Bromophenyl)amino]carbonyl}amino)-4-(methylthio)butanoic acid] are 75 nM and “(1.00)”. Turning to `CCC[C@H](NC(=O)Nc1ccc(Br)cc1F)C(N)=O` [Compound 30, (2S)-2-({[(4-Bromo-2-fluorophenyl)amino]carbonyl}amino)pentanamide], the EC50 stood at 56 nM and the “FPRL-1 Ga16-CHO (Rel. eff.)” value is “(1.07)”. In the same order, the values of `Cc1cc(Br)cc(C)c1NC(=O)N[C@@H](Cc1ccccc1)C(=O)O` [Compound 4, (2S)-2-({[(4-Bromo-2,6-dimethylphenyl)amino]carbonyl}amino)-3-phenylpropanoic acid] are 2400 nM and “(0.82)”.

Turning to `NC(=O)[C@H](Cc1ccccc1)NC(=O)Nc1ccc(Br)cc1` [Compound 26, (2S)-2-({[(4-Bromophenyl)amino]carbonyl}amino)-3-phenylpropanamide], the EC50 was 47 nM and 29 nM.

As for `CC(C)C[C@H](NC(=O)Nc1ccc(SC(F)(F)F)cc1)C(=O)O` [Compound 11, (2S)-4-Methyl-2-{[({4-[(trifluoromethyl)thio]phenyl}amino)carbonyl]amino}pentanoic acid], the EC50 worked out at 2380 nM and the “FPRL-1 Ga16-CHO (Rel. eff.)” value was “(0.64)”.

Turning to `CC[C@H](C)[C@H](NC(=O)Nc1ccc(Br)cc1F)C(N)=O` [Compound 29, (2S,3S)-2-({[(4-Bromo-2-fluorophenyl)amino]carbonyl}amino)-3-methylpentanamide], the concentration giving a half-maximal response (EC50) came out at 241 nM and the “FPRL-1 Ga16-CHO (Rel. eff.)” value is “(0.78)”.

For `CSCCC(NC(=O)Nc1ccc(Br)cc1)C(=O)O` (stereo not shown) [Compound 21, 2-({[(4-Bromophenyl)amino]carbonyl}amino)-4-(methylthio)butanoic acid], the EC50 came out at 93 nM and the “FPRL-1 Ga16-CHO (Rel. eff.)” value is on record as “(0.94)”.

Turning to `O=C(Nc1ccc(Br)cc1F)N[C@@H](Cc1ccccc1)C(=O)O` [Compound 1, (2S)-2-({[(4-Bromo-2-fluorophenyl)amino]carbonyl}amino)-3-phenylpropanoic acid], the concentration giving a half-maximal response (EC50) was 51 nM and the “FPRL-1 Ga16-CHO (Rel. eff.)” value is recorded as “(0.88)”. As to `CCC[C@H](NC(=O)Nc1ccc(Br)cc1)C(N)=O` [Compound 31, (2S)-2-{[(4-Bromophenyl)carbamoyl]amino} pentanamide], the EC50 was 109 nM and the “FPRL-1 Ga16-CHO (Rel. eff.)” value is on record as “(0.97)”. In the same order, the values of `CC(C)CC(C)(NC(=O)Nc1ccc(Br)cc1)C(=O)O` (stereo not shown) [Compound 24, 2-({[(4-Bromophenyl)amino]carbonyl}amino)-2,4-dimethylpentanoic acid] are 16 nM and “(0.95)”. On the same counts, the results for `O=C(Nc1ccc(Br)c2ccccc12)N[C@@H](Cc1ccccc1)C(=O)O` [Compound 10, (2S)-2-({[(4-Bromo-1-naphthyl)amino]carbonyl}amino)-3-phenylpropanoic acid] are 5100 nM and “(0.53)”. For the compound `O=C(Nc1ncc2cc(Br)ccc2n1)NC(Cc1ccccc1)C(=O)O` (stereo not shown) [Compound 20, 2-({[(6-Bromoquinazolin-2-yl)amino]carbonyl}amino)-3-phenylpropanoic acid], the “FPRL-1 Ga16-CHO (Rel. eff.)” value is on record as “(0.25)”. Consider `Cc1cc(Br)ccc1NC(=O)N[C@@H](Cc1ccccc1)C(=O)O` [Compound 2, (2S)-2-({[(4-Bromo-2-methylphenyl)amino]carbonyl}amino)-3-phenylpropanoic acid], for which the EC50 came to 1550 nM and the “FPRL-1 Ga16-CHO (Rel. eff.)” value is reported as “(1.0)”. As for `CSc1ccc(NC(=O)NC(Cc2ccccc2)C(=O)O)cc1` (stereo not shown) [Compound 23, 2-[({[4-(Methylthio)phenyl]amino}carbonyl)amino]-3-phenylpropanoic acid], the EC50 was 169 nM and the “FPRL-1 Ga16-CHO (Rel. eff.)” value is listed as “(0.76)”. `O=C(Nc1ccc(Br)cc1)NC(Cc1ccccn1)C(=O)O` (stereo not shown) [Compound 16, 2-({[(4-Bromophenyl)amino]carbonyl}amino)-3-pyridin-2-ylpropanoic acid]: the EC50 stood at 488 nM and the “FPRL-1 Ga16-CHO (Rel. eff.)” value is reported as “(1.0)”.

Turning to `O=C(Nc1ccc(Br)cc1F)N[C@H](C(=O)O)c1ccccc1` [Compound 8, (2S)-({[(4-Bromo-2-fluorophenyl)amino]carbonyl}amino)(phenyl)acetic acid], the EC50 worked out at 88 nM and the “FPRL-1 Ga16-CHO (Rel. eff.)” value is “(1.02)”. On the same counts, the results for `CC[C@H](C)[C@H](NC(=O)Nc1ccc(Br)cc1F)C(=O)O` [Compound 7, (2S,3S)-2-({[(4-Bromo-2-fluorophenyl)amino]carbonyl}amino)-3-methylpentanoic acid] are 8 nM and “(0.89)”. In the same order, the values of `O=C(Nc1c(F)cc(Br)cc1F)N[C@@H](Cc1ccccc1)C(=O)O` [Compound 3, (2S)-2-({[(4-Bromo-2,6-difluorophenyl)amino]carbonyl}amino)-3-phenylpropanoic acid] are 563 nM and “(1.0)”.

As to `CC(C)C[C@H](NC(=O)Nc1ccc(C(F)(F)F)cc1)C(=O)O` [Compound 12, (2S)-4-Methyl-2-[({[4-(trifluoromethyl)phenyl]amino}carbonyl)amino]pentanoic acid], the EC50 came out at 29 nM and the “FPRL-1 Ga16-CHO (Rel. eff.)” value is recorded as “(0.94)”. As to `CC(C)C[C@H](NC(=O)Nc1ccc(Br)cc1)C(N)=O` [Compound 28, (2S)-2-({[(4-Bromophenyl)amino]carbonyl}amino)-4-methylpentanamide], the EC50 was 48 nM and the “FPRL-1 Ga16-CHO (Rel. eff.)” value is listed as “(0.91)”.

`O=C(Nc1ccc(Br)cc1F)NC(Cc1c[nH]c2ccccc12)C(=O)O` (stereo not shown) [Compound 19, 2-({[(4-Bromo-2-fluorophenyl)amino]carbonyl}amino)-3-(1H-indol-3-yl)propanoic acid]: the EC50 was determined as 120 nM and the “FPRL-1 Ga16-CHO (Rel. eff.)” value was “(1.04)”. In the case of `O=C(Nc1ccc(Br)cc1F)NC(Cc1ccccn1)C(=O)O` (stereo not shown) [Compound 17, 2-({[(4-Bromo-2-fluorophenyl)amino]carbonyl}amino)-3-pyridin-2-ylpropanoic acid], the EC50 was found to be 713 nM and the “FPRL-1 Ga16-CHO (Rel. eff.)” value is given as “(1.0)”. As for `CSc1ccc(NC(=O)N[C@@H](Cc2ccccc2)C(=O)O)cc1` [Compound 15, (2S)-2-[({[4-(Methylthio)phenyl]amino}carbonyl)amino]-3-phenylpropanoic acid], the EC50 was 77 nM and the “FPRL-1 Ga16-CHO (Rel. eff.)” value is on record as “(0.87)”. For the compound `CC(C)C[C@H](NC(=O)Nc1ccc(Br)cc1F)C(N)=O` [Compound 27, (2S)-2-({[(4-Bromo-2-fluorophenyl)amino]carbonyl}amino)-4-methylpentanamide], the EC50 was 120 nM and the “FPRL-1 Ga16-CHO (Rel. eff.)” value is given as “(1.13)”.
